Measurements: patent US12415819B2, “Cu- and Ni-catalyzed decarboxylative borylation reactions” (The Scripps Research Institute, priority 2017, dated 2025)
Values after ≈ are worked out from the molar mass of the structure shown. Values joined by “and” are separate entries in the source; they are usually repeats but may differ in a detail not shown here. Equal entries are not always repeated.

How the values were obtained:
[1] = Mouse Liver Microsomal Metabolic Stability Assay
Procedure: 100 mM potassium phosphate buffer, pH 7.4. • 2. 10 mM MgCl2 • 3) Compound Dilution:
Intermediate solution was prepared by diluting 5 μL of compound or control stock solution (10 mM in DMSO) with DMSO (45 μL) and 1:1 Methanol/Water (450 μL) (concentration=100 μM, 45% MeOH). Working solution was prepared by diluting 50 μL of the intermediate solution with 450 μL of 100 mM potassium phosphate buffer, pH=7.4 (centration=10 μM, 4.5% MeOH). • 4) NADPH regenerating system (final Isocitric dehydrogenase concentration=1 unit/mL at incubation) comprised:
10 μL/well of compound working solution or control working solution was added to all plates (T0, T5, T10, T20, T30, T60, NCF60) except the matrix blank. 80 μL/well of microsome solution was added to every plate. The mixtures of microsome solution and compound were incubated at 37° C. for about 10 min. 10 μL/well of NADPH regenerating system (pre-warmed to 37° C.) was then added to every plate to start the reaction. […] For NCF60 (abbreviation of no co-factor) no NADPH regenerating system was added, but was replaced by 10 μL/well of potassium phosphate buffer (100 mM, pH 7.4); the resulting mixture was incubated at 37° C. for 1 h.
The reactions were then terminated with the stop solution (cold at 4° C.) containing 100 ng/mL Tolbutamide and 100 ng/mL Labetalol ([…]). The sampling plates were shaken for approximately 10 minutes, then were centrifuged at 4000 rpm for 20 min at 4° C. While centrifuging, 8 new 96 well plates were loaded with […] of HPLC grade water. 100 μL of supernatant was finally added to 300 μL of HPLC grade water and mixed for LC/MS/MS analysis.
The equation of first order kinetics was used to calculate T1/2 and CIint(mic): […]

Plasma Stability Assay = format: in vitro ADME, mouse
Procedure: Propantheline was used as the reference compound in this assay; all stock solutions were stored at −40° C. before use. • 2) Test system: CD-1 Mouse Plasma from a minimum of 20 male individuals were obtained from BioreclamationlVT (Catalog #: […]2-M; Batch #: MSE244515). EDTA-K2 was used as the anticoagulant. Procedure:
The frozen plasma was thawed in a water bath at 37° C. prior to the experiments. The plasma was centrifuged at 4000 rpm for 5 min and the clots were removed if necessary.
The pH was adjusted to 7.4±0.1 as necessary. An intermediate solution (1 mM) was prepared and a 100 μM dosing solution was prepared by diluting 10 μL of the intermediate solution with 90 μL 45% MeOH/H2O. Duplicate of test samples were made by mixing 98 μL of blank plasma with 2 μL of dosing solution (100 μM) to achieve the final concentration of 2 μM. Samples were incubated at 37° C. At each time point (0, 10, 30, 60, and 120 min), 400 μL of stop solution (consisting of 200 ng/mL tolbutamide and 20 ng/mL buspirone in 50% MeOH/CH3CN) was added to precipitate protein under thorough mixing. The sample plates were then centrifuged at 4,000 rpm for 10 min. An aliquot of supernatant (100 μL) was transferred from each well and mixed with 200 of μL ultrapure water. The samples were shaken at 800 rpm for about 10 min before LC-MS/MS analysis.
Data analysis: The % remaining of test compound after incubation in plasma was calculated using following equation: Remaining=100×(PAR at Tn/PAR at T0) where PAR is the peak area ratio of analyte versus internal standard (IS) and The appointed incubation time points are T0 (0 min), Tn (n=0, 10, 30, 60, 120 min).
LC-MS/MS condition: Each compound was analyzed by LC/MS using an ACE 5-phenyl 50×2.1 mm column (Part No. ACE-125-0502) with 0.1% formic acid in water and 0.1% formic acid in acetonitrile as the mobile phases. Tobultamide was used as the internal standard. Data collected were processed by Analyst 1.6.2 software and MultiQuant 3.0.2 software.

Kinetic Solubility Test = format: physicochemical
Procedure: The stock solution of each compound (10 μL; 10 mM in DMSO) was diluted with phosphate buffer solution (490 μL; 50 mM, pH 6.8). The resulting mixture was shaken for 24 h. Samples were then filtered.

Caco-2 cells = test: in vitro; settings: Caco-2
Procedure: (§1) Digoxin, fenoterol, and propranol were used as standards respectively. Transport Method:
(§2) The transport buffer used in the study was HBSS with 10 mM HEPES at pH 7.40±0.05. Compounds were tested at 2 μM bi-directionally in duplicates. Digoxin was tested at […] bi-directionally in a duplicate, while fenoterol and propranolol were tested at 2 μM in A(apical) to B (basolateral) direction in duplicates. The final DMSO concentration was adjusted to less than 1%. The plate was incubated for 2 hours in a CO2 incubator at 37±1° C., with 5% CO2 at saturated humidity without shaking. All samples, after mixing with acetonitrile containing internal standard, were centrifuged at 4000 rpm for 20 min. Subsequently,100 μL supernatant solution was diluted with 100 μL distilled water for LC/MS/MS analysis. Concentrations of test and control compounds in starting solution, donor solution, and receiver solution were quantified by LC/MS/MS methodologies, using peak area ratio of analyte/internal standard. After transport assay, lucifer yellow rejection assay was applied to determine the Caco-2 cell monolayer integrity.
(§3) Data analysis: The apparent permeability coefficient Papp (cm/s) was calculated using the equation:
(§4) The efflux ratio was calculated using the equation: Efflux ratio=Papp(BA)/Papp(AB)
(§5) Percent recovery was calculated using the equation: % Recovery=100×[(Vr·Cr)+(Vd·Cd)]/(Vd·C0) Where Vd is the volume in the donor chambers (0.075 mL on the apical side, 0.25 mL on the basolateral side); Cd and Cr are the final concentrations of transport compound in donor and receiver chambers, respectively.

[2] = biological target: elastase in CF patient sputum (Homo sapiens (Human), UniProt P08246); test: Elastase inhibition assay in CF patient sputum; format: biochemical
Sequence of elastase in CF patient sputum (P08246 30-267): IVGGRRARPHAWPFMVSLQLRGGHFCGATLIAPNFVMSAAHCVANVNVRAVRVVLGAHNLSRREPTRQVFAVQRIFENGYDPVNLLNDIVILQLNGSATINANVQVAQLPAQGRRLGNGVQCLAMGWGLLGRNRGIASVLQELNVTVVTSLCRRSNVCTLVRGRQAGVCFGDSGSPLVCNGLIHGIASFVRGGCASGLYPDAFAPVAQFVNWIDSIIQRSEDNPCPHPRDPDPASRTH
Procedure: (§6) Serially diluted compounds in DMSO were dispensed into a 384-well black opaque plate by Echo dispenser. 0.1 μg/mL human neutrophil elastase (EPC, Catalog# SE563, Owensville, Ms.) or human sputum diluted with assay buffer (100 mM HEPES, 500 mM NaCl, 0.02% Tween 20) was added into the 384-well plate, and was incubated with different compounds at different concentrations for 30 minutes at room temperature. The final concentration of DMSO in the reaction was 0.1%. Elastase substrate MeOSuc-AAPV-AMC (Bachem, Catalog #I-1270, Torrance, CA) of 100 μM final concentration was then added into the reaction system just before enzyme kinetics were read on PheraSTAR plate reader at excitation of 380 nm and emission of 460 nm with a 3-minutes interval for 30 minutes in total. Slope of fluorescence intensity vs. time representing the Vmax of enzyme activity was calculated with MARS software. % relative inhibition was calculated as: […]
(§7) IC50 was calculated based on the % relative inhibition curve using log(agonist) vs. response (three parameters) method with Prism software. All experiments were performed in triplicate for at least three independent times.
(§8) Human sputum was purchased from Discovery Life Sciences (Los Osos, CA). Human sputum was diluted 1:10 in volume with assay buffer (100 mM HEPES, 500 mM NaCl, 0.02% Tween 20) followed by vigorous vortexing. The 1:10 diluted human sputum was further diluted into 1:30, 1:90, 1:270, 1:810, and 1:2430. The elastase concentration was determined by elastase inhibition assay as described above. Specifically, a series of standards of human neutrophil elastase (starting at 2 μg/mL and further diluted 1:2 in volume) were prepared in the assay buffer. The samples and standards were plated in a 384-well black solid bottom plate; the substrate MeOSuc-AAPV-AMC of 100 μM final concentration was then added into the reaction system just before enzyme kinetics were read on PheraSTAR plate reader as mentioned above. The slope of enzymatic kinetic reading was calculated by MARS software. The elastase levels of the human sputum were calculated based on the standard curve.

[3] = biological target: T1, human neutrophil elastase (Homo sapiens (Human), UniProt P08246); test: Elastase inhibition assay, purified human neutrophil elastase; format: biochemical
T1 sequence (P08246 30-247): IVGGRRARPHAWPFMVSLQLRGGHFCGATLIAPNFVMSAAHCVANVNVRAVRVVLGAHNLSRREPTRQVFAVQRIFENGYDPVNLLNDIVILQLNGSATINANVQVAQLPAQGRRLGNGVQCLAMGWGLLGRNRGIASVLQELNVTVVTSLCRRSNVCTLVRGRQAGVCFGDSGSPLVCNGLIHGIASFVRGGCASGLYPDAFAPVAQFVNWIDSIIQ

[4] = biological target: elastase in COPD patient sputum (Homo sapiens (Human), UniProt P08246); test: Elastase inhibition assay in COPD patient sputum; format: biochemical
Sequence of elastase in COPD patient sputum (P08246 30-267): as the sequence (P08246 30-267) above
Procedure: as §6, §7, §8

[5] = biological target: T1, human neutrophil elastase; test: Elastase inhibition assay, purified human neutrophil elastase; format: biochemical; settings: for IC50: read-out: IC50
Procedure: as §6, with “Elastase substrate MeOSuc-AAPV-AMC (Bachem, Catalog #I-1270, Torrance, CA) of 100 μM final concentration was then added into the reaction system just before enzyme kinetics were read on PheraSTAR plate reader at excitation of 380 nm and emission of 460 nm with a 3-minutes interval for 30 minutes in total.” left out
as §7

[6] = biological target: T1, human neutrophil elastase; test: Time dependence of elastase inhibition; format: biochemical
Procedure: The procedure for the elastase inhibition assay was followed with slight modifications. 0.1 μg/mL human neutrophil elastase was incubated with a range of concentrations of inhibitors for 5, 15, 30 and 60 minutes before substrate MeOSuc-AAPV-AMC of 100 μM final concentration was added. Enzyme kinetics were read on PheraSTAR plate reader and IC50 was calculated with the method described above.

[7] = Caco-2 Permeability Assay; settings: human, Caco-2, pH 7.4
Procedure: as §1, §2, §3, §4, §5

[8] = mouse, microsomes, 1 h, 1 μM, pH 7.4

## CC(C)[C@H](NC(=O)c1ccc(C(=O)NS(=O)(=O)c2ccc(Cl)cc2)cc1)C(=O)N1CCC[C@H]1C(=O)N[C@H](C(=O)C(F)(F)F)C(C)C [Compound 51a]
[1]; MLM 0.5
  CLint(liver): 76.6 mL/min/kg
[1]; MLM 0.5, no co-factor
  Remaining (*NCF = 60min): 91.7%
[1]; MLM 0.5, with NADPH regenerating system
  Remaining (T = 60 min): 52.2%
Plasma Stability Assay; mouse, plasma, 10 min
  % Remaining (mean): 99.0%
Plasma Stability Assay; mouse, plasma, 0.5 h
  % Remaining (mean): 109.1%
Plasma Stability Assay; mouse, plasma, 1 h
  % Remaining (mean): 99.5%
Plasma Stability Assay; mouse, plasma, 2 h
  % Remaining (mean): 106.6%
  CD-1 Mouse Plasma % Remaining @ 2 hr: 106.6%
Kinetic Solubility Test; phosphate buffer pH 6.8, 24 h
  Kinetic Solubility pH = 6.8: 119.75 μg/mL
  solubility kinetic at 24 h: 174.28 µM (≈ 120 µg/mL)
Kinetic Solubility Test; summary table
  Kinetic solubility (pH 6.8): 174.28 μm
Caco-2 cells
  Caco-2 (Papp A − B): <0.16 10^−6 cm/s
  Caco-2 (Papp B − A): 0.61 10^−6 cm/s
  Mean Papp A to B: <0.08 10^−6 cm/s
  Mean Papp B to A: <0.12 10^−6 cm/s
  Mean Recovery % A to B: <74.15%
  Mean Recovery % B to A: <90.87%

## Cc1c(-c2ccnn2-c2ccc(C#N)cc2)cc(C(=O)NCC(O)CNC(=O)c2cc(-c3ccnn3-c3ccc(C#N)cc3)c(C)n(-c3cccc(C(F)(F)F)c3)c2=O)c(=O)n1-c1cccc(C(F)(F)F)c1 [Compound 58]
[2]; CF sputum
  IC50: 203000 ± 31200 pM
  LipE: 0.77
[2]; sputum samples of CF and COPD patients
  inhibitory activity in patient sputum versus purified HNE (in words): potencies diminished drastically
[3]; 2.5, 25, 50 and 100 μM substrate, mixed model
  Ki: 2.7 pM
[3]; purified HNE
  Ki: 2.7 pM
[4]
  IC50: 16200 ± 2130 pM
  LipE: 1.87
[5]; Purified NHE
  LipE: 5.04
[5]; Purified NHE, 30 minutes incubation at room temperature, 100 μM substrate
  IC50: 11.1 ± 0.2 pM
[5]; purified HNE
  IC50: 11 pM
[6]; 5 min incubation with inhibitor
  IC50: 11 pM
[6]; 15 min incubation with inhibitor
  IC50: 4 pM
[6]; 30 min incubation with inhibitor
  IC50: 2.6 pM
[6]; between 5-60 minutes
  increase in potency with increasing incubation times: 55 fold

## COC(=O)N[C@H](C(=O)N1CCC[C@H]1C(=O)N[C@H](B(O)O)C(C)C)C(C)C [Compound 50, ((R)-1-((S)-1-((methoxycarbonyl)-L-valyl)pyrrolidine-2-carboxamido)-2-methylpropyl)boronic acid]
[2]; CF sputum
  IC50: 510 ± 40 pM
[1]; mouse, 1 μM, pH 7.4
  Extraction ratio: <0.3
[1]; [8]
  Remaining (*NCF = 60min): 99.0%
  Remaining (T = 60 min): 78.5%
[1]; mouse, microsomes, pH 7.4
  CLint scaled at 1 μM: < 38 mL/min/kg
  half-life at 1 μM: > 2.42 h
  microsomal CLint at 1 μM: < 9.6 µL/min/mg
Plasma Stability Assay; CD-1 Mouse Plasma, 0 min, 2 μM, 37° C.
  % Remaining (mean): 100.0%
Plasma Stability Assay; CD-1 Mouse Plasma, 10 min
  % Remaining (mean): 100.5%
Plasma Stability Assay; CD-1 Mouse Plasma, 30 min
  % Remaining (mean): 105.2%
Plasma Stability Assay; CD-1 Mouse Plasma, 60 min
  % Remaining (mean): 88.0%
Plasma Stability Assay; CD-1 Mouse Plasma, 120 min
  % Remaining (mean): 76.7%
[4]
  IC50: 274 ± 4 pM
Kinetic Solubility Test; aqueous buffer, kinetic from dmso stock, phosphate buffer pH 6.8, 24 h
  solubility kinetic at 24 h: > 74.2 µg/mL and > 200 µM

## CC(Cc1ccc(O)cc1)NCC(O)c1cc(O)cc(O)c1 (centres unmarked) [Fenoterol]
[7]
  Papp A→B at 120 min, 2 μM: 0.24 ×10⁻⁶ cm/s
  recovery at 2 h, 2 μM: 93.4%
